This passage reports Activity, inhibition and IC50 results from ChEMBL document CHEMBL4715711, “Development of cyanopyridine-triazine hybrids as lead multitarget anti-Alzheimer agents” (Bioorg Med Chem, 2016).

pIC50: −log10 of the molar value. Activity calls are given as the source filed them. The rule behind the calls is not given here.

Data set [1] has as its system SH-SY5Y. In words: Neuroprotective activity against amyloid beta (1 to 42)-induced loss of adherence in human SH-SY5Y cells at 20 uM incubated for 24 hrs in presence of amyloid beta (1 to 42) by phase-contrast microscopic analysis. It counts as functional, cell-based.
Data set [2] concerns SH-SY5Y. In words: Cytotoxicity against human SH-SY5Y cells assessed as reduction in cell viability at 5 uM incubated for 48 hrs by MTT assay. It counts as cell-based. A general note: Tetrazolium dyes change colour on reduction, which living cells bring about.
For data set [3], the system named is SH-SY5Y. In words: Inhibition of H2O2-induced ROS accumulation in human SH-SY5Y cells at 10 to 20 uM incubated for 24 hrs by […] probe based fluorescence assay. It counts as functional, cell-based. The conditions noted are these: dose 10-20 µM.
Data set [4] relates to SH-SY5Y. In words: Inhibition of H2O2-induced morphological changes in human SH-SY5Y cells at 20 uM incubated for 24 hrs by microscopic analysis. In kind it is functional, cell-based.
For data set [5], the system named is SH-SY5Y. In words: Neuroprotective activity against amyloid beta (1 to 42)-induced cell fragmentation in human SH-SY5Y cells at 20 uM incubated for 24 hrs in presence of amyloid beta (1 to 42) by phase-contrast microscopic analysis. It counts as functional, cell-based.
The species entered for data set [6] is Homo sapiens. In words: Inhibition of amyloid beta (1 to 42 ) (unknown origin) self aggregation at 25 uM after 48 hrs by TEM analysis.
The test system of data set [7] is SH-SY5Y. In words: Cytotoxicity against human SH-SY5Y cells assessed as reduction in cell viability at 50 uM incubated for 48 hrs by MTT assay. It counts as cell-based.
In data set [8] the test system is SH-SY5Y. In words: Neuroprotective activity against amyloid beta (1 to 42)-induced neurotoxicity in human SH-SY5Y cells at 5 to 20 uM incubated for 48 hrs in presence of amyloid beta (1 to 42) by MTT assay. The following applies: dose 5-20 µM. It counts as functional, cell-based.
Data set [9] concerns SH-SY5Y. In words: Cytotoxicity against human SH-SY5Y cells assessed as reduction in cell viability at 1 uM incubated for 48 hrs by MTT assay. In kind it is cell-based.
The subject of data set [10] is SH-SY5Y. In words: Cytotoxicity against human SH-SY5Y cells assessed as reduction in cell viability at 100 uM incubated for 48 hrs by MTT assay. It counts as cell-based.
Data set [11] has as its system SH-SY5Y. In words: Inhibition of H2O2-induced cell death in human SH-SY5Y cells at 20 uM incubated for 24 hrs by microscopic analysis. In kind it is functional, cell-based.
The subject of data set [12] is SH-SY5Y. In words: Neuroprotective activity against amyloid beta (1 to 42)-induced fade synapses in human SH-SY5Y cells at 20 uM incubated for 24 hrs in presence of amyloid beta (1 to 42) by phase-contrast microscopic analysis. It counts as functional, cell-based.
In data set [13] the test system is SH-SY5Y. In words: Cytotoxicity against human SH-SY5Y cells assessed as reduction in cell viability at 75 uM incubated for 48 hrs by MTT assay. In kind it is cell-based.
Data set [14] has as its system SH-SY5Y. In words: Cytotoxicity against human SH-SY5Y cells assessed as reduction in cell viability at 25 uM incubated for 48 hrs by MTT assay. It counts as cell-based.
For data set [15], the species on record is Homo sapiens. In words: Inhibition of amyloid beta (1 to 42 ) (unknown origin) self aggregation at 25 uM after 48 hrs by thioflavin-T fluorescence method relative to control.
In data set [16] the test system is SH-SY5Y. In words: Neuroprotective activity against amyloid beta (1 to 42)-induced cell floating in human SH-SY5Y cells at 20 uM incubated for 24 hrs in presence of amyloid beta (1 to 42) by phase-contrast microscopic analysis. In kind it is functional, cell-based.
Data set [17] has as its system SH-SY5Y. In words: Cytotoxicity against human SH-SY5Y cells assessed as reduction in cell viability at 10 uM incubated for 48 hrs by MTT assay. It counts as cell-based.
Data set [18] deals with SH-SY5Y. In words: Neuroprotective activity against amyloid beta (1 to 42)-induced shrink on cell body in human SH-SY5Y cells at 20 uM incubated for 24 hrs in presence of amyloid beta (1 to 42) by phase-contrast microscopic analysis. In kind it is functional, cell-based.
Another data set has as its target Acetylcholinesterase (Electrophorus electricus, UniProt O42275). In words: Inhibition of electric eel AchE using acetylthiocholine iodide as substrate incubated for 5 mins followed by substrate addition and measured after 2 mins by Ellman's method. For orientation: In Ellman's method for cholinesterases, released thiocholine reacts with DTNB.
The target in the next data set is Cholinesterase (Equus caballus, UniProt P81908). In words: Inhibition of equine serum BuChE using butyrylthiocholine iodide as substrate incubated for 5 mins followed by substrate addition and measured after 2 mins by Ellman's method. In kind it is cell-free.
For data set [19], the target named is Acetylcholinesterase (Electrophorus electricus) (UniProt O42275). In words: Mixed inhibition of electric eel AchE using acetylthiocholine iodide as substrate incubated for 5 mins followed by substrate addition and measured after 2 mins by Ellman's method based Lineweaver-Burk plot analysis. The following applies: time 7.0 min.
Acetylcholinesterase (Electrophorus electricus), sequence (O42275 24-633 limits assumed): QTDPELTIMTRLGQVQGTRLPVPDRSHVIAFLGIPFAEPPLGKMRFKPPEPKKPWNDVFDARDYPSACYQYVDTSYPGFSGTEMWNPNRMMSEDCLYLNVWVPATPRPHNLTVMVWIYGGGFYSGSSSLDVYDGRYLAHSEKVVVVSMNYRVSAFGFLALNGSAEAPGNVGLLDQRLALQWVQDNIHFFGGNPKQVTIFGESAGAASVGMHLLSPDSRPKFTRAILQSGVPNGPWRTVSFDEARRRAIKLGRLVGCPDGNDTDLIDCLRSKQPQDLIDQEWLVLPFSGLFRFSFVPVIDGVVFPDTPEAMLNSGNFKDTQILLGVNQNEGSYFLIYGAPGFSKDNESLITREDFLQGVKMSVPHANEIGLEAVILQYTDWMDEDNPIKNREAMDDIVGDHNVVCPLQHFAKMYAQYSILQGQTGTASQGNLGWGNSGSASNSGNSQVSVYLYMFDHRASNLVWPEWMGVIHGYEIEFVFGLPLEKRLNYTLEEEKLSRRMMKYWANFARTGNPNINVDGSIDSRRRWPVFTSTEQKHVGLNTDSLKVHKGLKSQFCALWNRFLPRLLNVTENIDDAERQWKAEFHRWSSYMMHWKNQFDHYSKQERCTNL

Cholinesterase, sequence (P81908 whole entry): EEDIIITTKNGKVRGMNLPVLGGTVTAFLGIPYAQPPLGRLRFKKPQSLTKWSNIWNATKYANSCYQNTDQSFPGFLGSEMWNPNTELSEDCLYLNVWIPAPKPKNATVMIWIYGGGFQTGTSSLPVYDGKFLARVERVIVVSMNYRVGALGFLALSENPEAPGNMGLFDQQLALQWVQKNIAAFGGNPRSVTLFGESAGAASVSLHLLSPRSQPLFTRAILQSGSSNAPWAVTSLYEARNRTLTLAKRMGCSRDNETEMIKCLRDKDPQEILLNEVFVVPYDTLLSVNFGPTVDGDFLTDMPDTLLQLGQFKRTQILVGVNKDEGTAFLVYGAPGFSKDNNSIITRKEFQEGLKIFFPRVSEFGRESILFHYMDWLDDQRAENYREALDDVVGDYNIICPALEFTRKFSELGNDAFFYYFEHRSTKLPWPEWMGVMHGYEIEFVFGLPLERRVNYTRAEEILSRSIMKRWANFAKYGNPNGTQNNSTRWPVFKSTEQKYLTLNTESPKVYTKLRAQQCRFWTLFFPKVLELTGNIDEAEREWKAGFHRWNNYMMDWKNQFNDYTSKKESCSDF
Acetylcholinesterase, sequence (O42275 whole entry): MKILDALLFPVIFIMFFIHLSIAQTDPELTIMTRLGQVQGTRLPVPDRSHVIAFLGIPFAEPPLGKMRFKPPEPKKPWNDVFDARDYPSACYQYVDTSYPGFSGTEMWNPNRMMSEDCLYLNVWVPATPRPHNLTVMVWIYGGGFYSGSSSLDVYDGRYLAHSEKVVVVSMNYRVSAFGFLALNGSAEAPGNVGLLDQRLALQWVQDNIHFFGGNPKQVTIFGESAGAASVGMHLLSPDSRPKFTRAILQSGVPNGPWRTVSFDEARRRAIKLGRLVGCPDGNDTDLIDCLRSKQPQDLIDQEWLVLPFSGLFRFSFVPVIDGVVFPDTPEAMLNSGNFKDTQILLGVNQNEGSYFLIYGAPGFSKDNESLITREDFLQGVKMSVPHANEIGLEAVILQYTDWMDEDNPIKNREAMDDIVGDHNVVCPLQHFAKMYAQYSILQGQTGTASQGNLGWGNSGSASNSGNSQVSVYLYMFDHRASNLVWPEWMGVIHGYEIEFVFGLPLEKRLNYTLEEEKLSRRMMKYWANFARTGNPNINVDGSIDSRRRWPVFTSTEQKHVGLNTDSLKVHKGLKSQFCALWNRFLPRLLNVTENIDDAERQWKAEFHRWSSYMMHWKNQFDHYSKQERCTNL

`COc1ccc(Nc2nc(Nc3cccc(C(F)(F)F)c3)nc(N3CCN(c4ncccc4C#N)CC3)n2)cc1`: the outcome in the data set on SH-SY5Y [1], with SH-SY5Y [5], with SH-SY5Y [12], with SH-SY5Y [16] and in the data set on SH-SY5Y [18] was Active. For the same compound, the Activity in the data set on SH-SY5Y [2] is 96.4%; in the data set with SH-SY5Y [7], 89.6%; with SH-SY5Y [8] it was “Dose-dependent effect”; in the data set on SH-SY5Y [9], 98.1%; with SH-SY5Y [10], 83.3%; in the data set on SH-SY5Y [13] it was 86.3%. Further, the Activity in the data set with SH-SY5Y [14] came to 93.8%; with SH-SY5Y [17], 94.7%. Moreover, the inhibition result with SH-SY5Y [3], in the data set with SH-SY5Y [4], in the data set listed under Homo sapiens [6] and in the data set on SH-SY5Y [11] was “Active” throughout. For the same compound, the inhibition (in general, the percentage by which the read-out fell short of the control) in the data set listed under Homo sapiens [15] turned out to be 82.4%. The pIC50 (usually the IC50 on a negative log10 scale, so that one unit is a factor of ten) is 7.10 on Acetylcholinesterase and 5.70 on Cholinesterase.

`N#Cc1cccnc1N1CCN(c2nc(Nc3cccc(C(F)(F)F)c3)nc(Nc3ccc(F)c(Cl)c3)n2)CC1`: the outcome in the data set on SH-SY5Y [1], in the data set on SH-SY5Y [5], in the data set with SH-SY5Y [8], in the data set on SH-SY5Y [12], in the data set on SH-SY5Y [16] and in the data set on SH-SY5Y [18] was Active. Also, the Activity in the data set on SH-SY5Y [2] is 95.4%; in the data set with SH-SY5Y [7], 88.6%; in the data set with SH-SY5Y [9] it was 97.1%; in the data set on SH-SY5Y [10], 80.3%; in the data set with SH-SY5Y [13], 84.3%; with SH-SY5Y [14], 92.8%. In addition, in the data set on SH-SY5Y [17], the Activity is 95.7%. Also, the inhibition result (in the data set with SH-SY5Y [3]; in the data set with SH-SY5Y [4]; in the data set filed under Homo sapiens [6]; in the data set on SH-SY5Y [11]; in data set [19]) was “Active” throughout. The inhibition in the data set filed under Homo sapiens [15] was found to be 83.7%. Moreover, the pIC50 at Acetylcholinesterase was 7.23; against Cholinesterase, 5.44.

`COc1cc(/C=C/C(=O)CC(=O)/C=C/c2ccc(O)c(OC)c2)ccc1O`: the inhibition result in the data set listed under Homo sapiens [6] is “Active”. In the data set listed under Homo sapiens [15], the inhibition worked out at 55.3%.

Take `Cc1ccc(Nc2nc(Nc3ccc(F)c(Cl)c3)nc(N3CCN(c4ncccc4C#N)CC3)n2)cc1`: the inhibition in the data set listed under Homo sapiens [15] is 63.5%. For the same compound, the pIC50 was 5.77 at Acetylcholinesterase and 5.27 at Cholinesterase.

On to `Cc1ccc(Nc2nc(Nc3cccc(C(F)(F)F)c3)nc(N3CCN(c4ncccc4C#N)CC3)n2)cc1`, for which the inhibition in the data set listed under Homo sapiens [15] was determined as 70.5%. For the same compound, the pIC50 on Acetylcholinesterase was 6.82; on Cholinesterase, 5.65.

`N#Cc1cccnc1N1CCN(c2nc(Nc3ccc(F)cc3)nc(Nc3cccc(C(F)(F)F)c3)n2)CC1` gave an inhibition in the data set listed under Homo sapiens [15] of 80.4%. For the same compound, the pIC50 is 7.08 at Acetylcholinesterase and 5.31 against Cholinesterase.

`N#Cc1cccnc1N1CCN(c2nc(Nc3cccc(C(F)(F)F)c3)nc(Nc3ccc(F)cc3F)n2)CC1` registered an inhibition in the data set filed under Homo sapiens [15] of 81.2%. Further, the pIC50 against Acetylcholinesterase was 7.14; against Cholinesterase, 5.55.

In the case of `COc1ccc(Nc2nc(Nc3ccccc3F)nc(N3CCN(c4ncccc4C#N)CC3)n2)cc1`, the inhibition in the data set listed under Homo sapiens [15] worked out at 68.5%. Also, the pIC50 on Acetylcholinesterase is 5.85; against Cholinesterase, 5.38.

For `N#Cc1cccnc1N1CCN(c2nc(Nc3cccc(C(F)(F)F)c3)nc(NC3CC3)n2)CC1`, the inhibition in the data set listed under Homo sapiens [15] was found to be 60.7%. Moreover, the pIC50 was 6.28 at Acetylcholinesterase and 5.28 on Cholinesterase.
